Common to all, as to type: cell-based
One test concerns A431 cells. In words: In vitro tumor cell proliferation assay (Cell Titer-Glo) in A431 cells. The conditions noted are these: Homo sapiens, A-431, 72 h, A431 human epidermoid carcinoma overexpressing HER1; 72 hours exposure; read-out: IC50, activities in A431 cell lines. An excerpt: (§1) The tumor cell proliferation assay used to test the compounds of the present invention involves a readout called Cell Titer-Glow® Luminescent Cell Viability Assay developed by Promega® (Cunningham, BA “A Growing Issue: Cell Proliferation Assays, Modern kits ease quantification of cell growth” The Scientist 2001, 15(13), 26, and Crouch, S P et al., “The use of ATP bioluminescence as a measure of cell proliferation and cytotoxicity” Journal of Immunological Methods 1993, 160, 81-88), that measures inhibition of cell proliferation. Generation of a luminescent signal corresponds to the amount of ATP present, which is directly proportional to the number of metabolically active (proliferating) cells. A431 cells [human epidermoid carcinoma, ATCC # HTB-20, overexpressing HER1 (EGFR, ErbB1)] and N87 [human gastric carcinoma, ATCC # CRL-1555, overexpressing HER2 (ErbB2) and HER1 (EGFR, ErbB1)] were plated at a density of 2.5×10^3 cells/well in 96 well black-clear bottom tissue culture plates in RPMI media with 10% Fetal Bovine Serum and incubated at 37° C. Twenty-four hours later, test compounds are added at a final concentration range from as high 100 μm to as low […] depend on the activities of the tested compounds in serial dilutions at a final DMSO concentration of 0.1%. Cells were incubated for 72 hours at 37° C. in complete growth media after addition of the test compound. After 72 hours of drug exposure, the plates were equilibrated to room temperature for approximately 30 min. Then, using a Promega Cell Titer Glo Luminescent® assay kit, lysis buffer containing 100 microliters of the enzyme luciferase and its substrate, luciferin mixture, was added to each well. The plates were mixed for 2 min on orbital shaker to ensure cell lysis and incubated for 10 min at room temperature to stabilize luminescence signal. The samples were read on VICTOR2 using Luminescence protocol, and analyzed with Analyze5 software to generate IC50 values.
A general note: In ATP-based viability assays light output follows the ATP content of the culture.

A further test concerns N87. In words: In vitro tumor cell proliferation assay (Cell Titer-Glo) in N87 cells. The conditions noted are these: N87 human gastric carcinoma overexpressing HER2 and HER1; 72 hours exposure; read-out: IC50, activities in N87 cell lines.
From the text: as §1

For another test, the system named is H1975 cells. In words: In vitro tumor cell proliferation assay (Cell Titer-Glo) in H1975 cells. The settings on record: NCI-H1975; H1975 human NSCLC expressing mutant HER1 (L858R,T790M); 72 hours exposure; read-out: IC50, activities in H 1975 cell lines. An excerpt: The tumor cell proliferation assay used to test the compounds of the present invention involves a readout called Cell Titer-Glow® Luminescent Cell Viability Assay developed by Promega® (Cunningham, BA “A Growing Issue: Cell Proliferation Assays, Modern kits ease quantification of cell growth” The Scientist 2001, 15(13), 26, and Crouch, S P et al., “The use of ATP bioluminescence as a measure of cell proliferation and cytotoxicity” Journal of Immunological Methods 1993, 160, 81-88), that measures inhibition of cell proliferation. Generation of a luminescent signal corresponds to the amount of ATP present, which is directly proportional to the number of metabolically active (proliferating) cells.
H1975 cells [human non small cell lung carcinoma, ATCC # CRL-5908, expressing mutant HER1 [(EGFR, ErbB1)(L858R,T790M] were plated at a density of 3×10^3 cells/well in 96 well black-clear bottom tissue culture plates in RPMI media with 10% Fetal Bovine Serum and incubated at 37° C. Twenty-four hours later, test compounds are added at a final concentration range from as high 10 uM to as low 64 pM depending on the activities of the tested compounds in serial dilutions at a final DMSO concentration of 0.1%. Cells were incubated for 72 hours at 37° C. in complete growth media after addition of the test compound. After 72 hours of drug exposure, the plates were equilibrated to room temperature for approximately 30 min. Then, using a Promega Cell Titer Glo Luminescent® assay kit, lysis buffer containing 100 microliters of the enzyme luciferase and its substrate, luciferin mixture, was added to each well. The plates were mixed for 2 min on orbital shaker to ensure cell lysis and incubated for 10 min at room temperature to stabilize luminescence signal. The samples were read on VICTOR2 using Luminescence protocol, and analyzed with Analyze5 software to generate IC50 values.

The term IC50 denotes the concentration that inhibits the measured activity by half. For the compound `O=C(/C=C/CN1CCN(CCO)CC1)N1CCc2c(sc3ncnc(Nc4ccc(OCc5ccccn5)c(Cl)c4)c23)C1` [Example 62, 2-(4-{(2E)-4-[4-{[3-chloro-4-(pyridin-2-ylmethoxy)phenyl]amino}-5,8-dihydropyrido [4′,3′:4,5]thieno[2,3-d]pyrimidin-7(6H)-yl]-4-oxobut-2-en-1-yl}piperazin-1-yl)ethanol], the IC50 in the test on A431 cells is 200 to 1000 nM; in the test with N87 it was < 200 nM; in the test on H1975 cells, 200 to 1000 nM.

`CC(C)N(C)C/C=C/C(=O)N1CCc2c(sc3ncnc(Nc4ccc(OCc5cnccn5)c(Cl)c4)c23)C1` [Example 82, N-[3-chloro-4-(pyrazin-2-ylmethoxy)phenyl]-7-{(2E)-4-[isopropyl(methyl)amino]but-2-enoyl}-5,6,7,8-tetrahydropyrido [4′3′:4,5]thieno[2,3-d]pyrimidin-4-amine]: the figures for the IC50 with A431 cells, in the test with N87 and with H1975 cells were 1000 to 10000 nM, < 200 nM and 200 to 1000 nM, respectively.

For the compound `O=C(/C=C/CN1CCOCC1)N1CCc2c(sc3ncnc(Nc4ccc5c(cnn5Cc5cccc(F)c5)c4)c23)C1` [Example 102, N-[1-(3-fluorobenzyl)-1H-indazol-5-yl]-7-[(2E)-4-morpholin-4-ylbut-2-enoyl]-5,6,7,8-tetrahydropyrido [4′,3′:4,5]thieno[2,3-d]pyrimidin-4-amine], the IC50 with A431 cells was 200 to 1000 nM; in the test on N87, < 200 nM; with H1975 cells, 1000 to 10000 nM.

Take `O=C(C#CCN1CCOCC1)N1CCc2c(sc3ncnc(Nc4ccc(OCc5cccc(F)c5)c(Cl)c4)c23)C1` [Example 139, N-{3-chloro-4-[(3-fluorobenzyl)oxy]phenyl}-7-(4-morpholin-4-ylbut-2-ynoyl)-5,6,7,8-tetrahydropyrido [4′,3′:4,5]thieno[2,3-d]pyrimidin-4-amine]: the IC50 with A431 cells was 200 to 1000 nM; in the test with N87, < 200 nM; with H1975 cells, 200 to 1000 nM.

In the case of `O=C(/C=C/CN1CCCC1)N1CCc2c(sc3ncnc(Nc4cccc(Br)c4)c23)C1` [Example 194, N-(3-bromophenyl)-7-[(2E)-4-pyrrolidin-1-ylbut-2-enoyl]-5,6,7,8-tetrahydropyrido [4′,3′:4,5]thieno[2,3-d]pyrimidin-4-amine], the IC50 with A431 cells, with N87 and in the test on H1975 cells was < 200 nM each time.

Take `O=C(/C=C/CN1CCSCC1)N1CCc2c(sc3ncnc(Nc4ccc(F)c(Cl)c4)c23)C1` [Example 42, N-(3-chloro-4-fluorophenyl)-7-[(2E)-4-thiomorpholin-4-ylbut-2-enoyl]-5,6,7,8-tetrahydropyrido [4′,3′:4,5]thieno[2,3-d]pyrimidin-4-amine]: the IC50 in the test with A431 cells is 1000 to 10000 nM; with N87 it was < 200 nM; in the test on H1975 cells it was 1000 to 10000 nM.

Regarding `CC(C)N(C)C/C=C/C(=O)N1CCc2c(sc3ncnc(Nc4ccc5c(cnn5Cc5ccccn5)c4)c23)C1` [Example 116, 7-{(2E)-4-[isopropyl(methyl)amino]but-2-enoyl}-N-[1-(pyridin-2-ylmethyl)-1H-indazol-5-yl]-5,6,7,8-tetrahydropyrido [4′,3′:4,5] thieno[2,3-d]pyrimidin-4-amine], the values for the 50% inhibitory concentration (IC50) in the test with A431 cells, in the test with N87 and with H1975 cells were 200 to 1000 nM, < 200 nM and 200 to 1000 nM, respectively.

For the compound `C#Cc1cccc(Nc2ncnc3sc4c(c23)CCN(C(=O)C#CCN(C)C)C4)c1` [Example 133, 7-[4-(dimethylamino)but-2-ynoyl]-N-(3-ethynylphenyl)-5,6,7,8-tetrahydropyrido [4′,3′:4,5]thieno[2,3-d]pyrimidin-4-amine], the IC50 in the test on A431 cells was 200 to 1000 nM; with N87, < 200 nM; in the test on H1975 cells, 200 to 1000 nM.

Take `CN(C)C/C=C/C(=O)N1CCc2c(sc3ncnc(Nc4ccc(Br)cc4)c23)C1` [Example 184, N-(4-bromophenyl)-7-[(2E)-4-(dimethylamino)but-2-enoyl]-5,6,7,8-tetrahydropyrido [4′,3′:4,5]thieno[2,3-d]pyrimidin-4-amine.]: the IC50 is 200 to 1000 nM in the test with A431 cells, < 200 nM with N87 and 1000 to 10000 nM in the test with H1975 cells.

Turning to `CC(C)N(C)C/C=C/C(=O)N1CCc2c(sc3ncnc(Nc4ccc5c(ccn5Cc5cccc(F)c5)c4)c23)C1` [Example 122, N-[1-(3-fluorobenzyl)-1H-indol-5-yl]-7-{(2E)-4-[isopropyl(methyl)amino]but-2-enoyl}-5,6,7,8-tetrahydropyrido [4′,3′:4,5]thieno[2,3-d]pyrimidin-4-amine], the IC50 in the test with A431 cells was 200 to 1000 nM; in the test on N87, < 200 nM; with H1975 cells, < 200 nM.

Take `CCN(C)C/C=C/C(=O)N1CCc2c(sc3ncnc(Nc4ccc(Cl)c(Cl)c4)c23)C1` [Example 190, N-(3,4-dichlorophenyl)-7-{(2E)-4-[ethyl(methyl)amino]but-2-enoyl}-5,6,7,8-tetrahydropyrido [4′,3:4,5]thieno[2,3-d]pyrimidin-4-amine]: the IC50 was 200 to 1000 nM with A431 cells, < 200 nM in the test with N87 and 200 to 1000 nM in the test with H1975 cells.

For `CN(C)C/C=C/C(=O)N1CCc2c(sc3ncnc(Nc4ccc5c(cnn5Cc5cccc(F)c5)c4)c23)C1` [Example 92, 7-[(2E)-4-(dimethylamino)but-2-enoyl]-N-[1-(3-fluorobenzyl)-1H-indazol-5-yl]-5,6,7,8-tetrahydropyrido [4′,3′:4,5]thieno[2,3-d]pyrimidin-4-amine], the IC50 with A431 cells, in the test with N87 and in the test with H1975 cells was < 200 nM throughout.

For `CN(C)CC#CC(=O)N1CCc2c(sc3ncnc(Nc4ccc(F)c(Cl)c4)c23)C1` [Example 134, N-(3-chloro-4-fluorophenyl)-7-[4-(dimethylamino)but-2-ynoyl]-5,6,7,8-tetrahydropyrido [4′,3′:4,5]thieno[2,3-d]pyrimidin-4-amine], the IC50 in the test with A431 cells was 200 to 1000 nM; in the test on N87, < 200 nM; in the test on H1975 cells, 200 to 1000 nM.

Take `CC(C)N(C)C/C=C/C(=O)N1CCc2c(sc3ncnc(Nc4ccc(Cl)c(Cl)c4)c23)C1` [Example 187, N-(3,4-dichlorophenyl)-7-{(2E)-4-[isopropyl(methyl)amino]but-2-enoyl}-5,6,7,8-tetrahydropyrido[4′,3′:4,5]thieno[2,3-d]pyrimidin-4-amine]: the IC50 is 200 to 1000 nM with A431 cells, < 200 nM with N87 and < 200 nM with H1975 cells.

Take `CN(C)C/C=C/C(=O)N1CCc2c(sc3ncnc(Nc4ccc(F)cc4F)c23)C1` [Example 162, N-(2,4-difluorophenyl)-7-[(2E)-4-(dimethylamino)but-enoyl]-5,6,7,8-tetrahydropyrido [4′,3′:4,5]thieno[2,3-d]pyrimidin-4-amine]: the 50% inhibitory concentration (IC50) is 200 to 1000 nM in the test with A431 cells, < 200 nM in the test with N87 and 1000 to 10000 nM in the test on H1975 cells.

Consider `C#Cc1cccc(Nc2ncnc3sc4c(c23)CCN(C(=O)/C=C/CN2CCOCC2)C4)c1` [Example 15, N-(3-ethynylphenyl)-7-[(2E)-4-morpholin-4-ylbut-2-enoyl]-5,6,7,8-tetrahydropyrido[4′,3′:4,5]thieno[2,3-d]pyrimidin-4-amine], for which the IC50 in the test with A431 cells was < 200 nM; in the test with N87, < 200 nM; in the test with H1975 cells, 1000 to 10000 nM.

For `CN1CCN(C/C=C/C(=O)N2CCc3c(sc4ncnc(Nc5ccc(F)c(Cl)c5)c34)C2)CC1` [Example 8, N-(3-chloro-4-fluorophenyl)-7-[(2E)-4-(4-methylpiperazin-1-yl)but-2-enoyl]-5,6,7,8-tetrahydropyrido[4′,3′:4,5]thieno[2,3-d]pyrimidin-4-amine], the IC50 in the test with A431 cells was 200 to 1000 nM; in the test with N87, < 200 nM; in the test with H1975 cells, 1000 to 10000 nM.

The record behind these values is patent US8501755B2, “Tetrahydropyridothienopyrimidine compounds and methods of use thereof” (Bayer Intellectual Property GmbH, priority 2006, dated 2013).
